Measured values: US11999727B2 (Tango Therapeutics, Inc., priority 2020, dated 2024)

Legend:
PRMT5 [1] = molecular target: T1, PRMT5 (Homo sapiens, UniProt O14744); test: PRMT5 biochemical IC50 assay with SAM as cofactor; details: PRMT5, SAM as cofactor; read-out: SAM IC50
T1 construct: purchased Viva (custom protein)

[2] = system: HAP1 MTAP-deleted cell line; test: Viability assay, MTAP-deleted cell line; assay type: cell-based; details: Homo sapiens, HAP1, viability assay, MTAP-deleted cell line; read-out: HAP1 MTAP deleted viability
Source text: Table 1 additionally indicates IC50 values in a viability assay for the MTAP-deleted cell line (column 10), indicating the effect of treatment with compound on cell survival.

[3] = system: HAP1 MTAP-intact cell line; test: SDMA in-cell western assay, HAP1 MTAP-intact; assay type: cell-based; details: Homo sapiens, HAP1, SDMA in-cell western, HAP1 MTAP-intact; read-out: MTAP HAP1 intact IC50
Procedure, shortened: (§1)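 MTAP-null vs endogenous-MTAP HAP1 isogenic cells; in-cell western SDMA readout; IC50 per line.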

[4] = system: HAP1 MTAP-deleted cell line; test: SDMA in-cell western assay, HAP1 MTAP-deleted; assay type: cell-based; details: for IC50: Homo sapiens, HAP1, SDMA in-cell western, HAP1 MTAP-deleted, read-out: HAP 1 MTAP deleted IC50; for MTAP intact/deleted ratio: IC50 ratio HAP1 MTAP-intact / HAP1 MTAP-deleted, SDMA in-cell western
Procedure, shortened: as §1

PRMT5 [5] = molecular target: T1, PRMT5; test: PRMT5 biochemical IC50 assay with MTA as cofactor; details: PRMT5, MTA as cofactor; read-out: MTA IC50
PRMT5 [6] = molecular target: T1, PRMT5; test: PRMT5 biochemical IC50 assay with no cofactor; details: PRMT5, no cofactor; read-out: No Cofactor/rel IC50
Source text: Table 1 indicates IC50 values (μM) against PRMT5 for exemplary compounds in the presence of SAM as cofactor, with no cofactor, and with MTA as cofactor, respectively (columns 4-6). […] Ki values can be calculated from the IC50 values as described in the Examples section. As detailed in the Examples section, for the assay performed in the presence of SAM, IC50=Ki×1.5 (Ki=IC50/1.5).

T1 sequence (O14744 whole entry): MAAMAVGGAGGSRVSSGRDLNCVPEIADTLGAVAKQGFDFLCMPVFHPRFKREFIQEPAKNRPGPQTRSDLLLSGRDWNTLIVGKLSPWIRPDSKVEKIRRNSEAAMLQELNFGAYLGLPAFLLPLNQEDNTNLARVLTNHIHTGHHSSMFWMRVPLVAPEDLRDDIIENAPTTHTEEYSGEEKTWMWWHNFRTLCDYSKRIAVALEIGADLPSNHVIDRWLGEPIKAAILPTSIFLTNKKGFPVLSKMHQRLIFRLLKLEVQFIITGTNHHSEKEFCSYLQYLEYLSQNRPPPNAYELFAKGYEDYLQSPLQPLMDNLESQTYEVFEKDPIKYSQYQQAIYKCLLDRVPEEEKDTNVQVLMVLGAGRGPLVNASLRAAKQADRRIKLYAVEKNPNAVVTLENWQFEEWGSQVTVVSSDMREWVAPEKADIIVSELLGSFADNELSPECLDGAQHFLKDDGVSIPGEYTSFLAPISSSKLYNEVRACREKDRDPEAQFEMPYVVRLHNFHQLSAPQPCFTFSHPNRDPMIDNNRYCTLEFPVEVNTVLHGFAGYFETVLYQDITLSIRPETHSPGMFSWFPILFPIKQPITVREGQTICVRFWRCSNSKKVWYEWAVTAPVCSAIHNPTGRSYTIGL
T1 sequence (Q9BQA1 whole entry partner): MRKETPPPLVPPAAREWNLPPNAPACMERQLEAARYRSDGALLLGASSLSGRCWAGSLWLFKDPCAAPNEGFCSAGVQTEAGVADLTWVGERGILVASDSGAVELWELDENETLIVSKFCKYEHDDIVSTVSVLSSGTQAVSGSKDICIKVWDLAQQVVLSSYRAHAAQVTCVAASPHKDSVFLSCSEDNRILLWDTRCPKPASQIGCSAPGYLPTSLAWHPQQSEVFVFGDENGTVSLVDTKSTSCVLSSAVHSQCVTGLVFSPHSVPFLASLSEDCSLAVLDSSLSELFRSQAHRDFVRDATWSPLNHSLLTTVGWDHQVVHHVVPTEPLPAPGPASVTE

Compound	IC50 (PRMT5 [1]) [nM]	IC50 [3] [nM]	IC50 [4] [nM]	IC50 (PRMT5 [5]) [nM]	IC50 (PRMT5 [6]) [nM]	IC50 [2] [nM]	MTAP intact/deleted ratio [4]
CCc1cc(NC(=O)C(=O)N2C[C@@H](C)CC[C@@H]2c2cccc3[nH]ncc23)cnc1N (single isomer, unassigned) [Compound 928]	50 to 500	> 1000	< 100	< 50	< 50	< 1000	A (an IC50 ratio greater than or equal to 10 fold)
CCc1cc(NC(=O)C(=O)N2C[C@@H](C)CC[C@@H]2c2ccc3cnccc3c2)cnc1N (single isomer, unassigned) [Compound 929]	> 500	> 1000	100 to 1000	> 500	> 500	1000 to 10000	A (an IC50 ratio greater than or equal to 10 fold)
COc1ncc(NC(=O)C(=O)N2C[C@H](C)CC[C@H]2c2ccc(NC(C)=O)nc2)cc1C(N)=O (single isomer, unassigned) [Compound 930]	50 to 500	> 1000	< 100	< 50	50 to 500	1000 to 10000	A (an IC50 ratio greater than or equal to 10 fold)
CCc1cc(NC(=O)C(=O)N2C[C@H](C)CC[C@H]2c2ccn(-c3cc[nH]n3)n2)cnc1N (single isomer, unassigned) [Compound 931]	50 to 500	100 to 1000	< 100	< 50	50 to 500	< 1000	A (an IC50 ratio greater than or equal to 10 fold)

Second part, led by results:

IC50 (PRMT5 [1]) [nM]	IC50 [3] [nM]	IC50 [4] [nM]	IC50 (PRMT5 [5]) [nM]	IC50 (PRMT5 [6]) [nM]	Compound	IC50 [2] [nM]	MTAP intact/deleted ratio [4]
> 500	> 1000	> 1000	> 500	> 500	COc1ncc(NC(=O)C(=O)N2C[C@H](C)CC[C@H]2c2ccc3cnccc3c2)cc1C(N)=O (single isomer, unassigned) [Compound 933]	> 10000	B (an IC50 ratio greater than or equal to 3 fold but lower than 10 fold)
50 to 500	> 1000	100 to 1000	< 50	50 to 500	CC(=O)Nc1ccc([C@@H]2CC[C@@H](C)CN2C(=O)C(=O)Nc2cncc(C(N)=O)c2)cn1 (single isomer, unassigned) [Compound 934]	> 10000	A (an IC50 ratio greater than or equal to 10 fold)
> 500	> 1000	> 1000	> 500	> 500	CCc1cc(NC(=O)C(=O)N2C[C@H](C)C(F)(F)C[C@H]2c2ccc(C)nc2)cnc1N (single isomer, unassigned) [Compound 935]	> 10000	C (an IC50 ratio of less than 3 fold)
> 500	> 1000	> 1000	> 500	> 500	COc1ncc(NC(=O)C(=O)N2C[C@H](C)C(F)(F)C[C@H]2c2ccc(C)nc2)cc1C(N)=O (single isomer, unassigned) [Compound 936]	> 10000	C (an IC50 ratio of less than 3 fold)
50 to 500	100 to 1000	< 100	< 50	< 50	Cc1cc(NC(=O)C(=O)N2C[C@@H](C)CC[C@@H]2c2cn[nH]c2)cnc1N (single isomer, unassigned) [Compound 941]	1000 to 10000	B (an IC50 ratio greater than or equal to 3 fold but lower than 10 fold)
50 to 500	> 1000	100 to 1000	< 50	50 to 500	C[C@H]1CC[C@H](c2cn[nH]c2)N(C(=O)C(=O)Nc2cncc(C(N)=O)c2)C1 (single isomer, unassigned) [Compound 942]	> 10000	A (an IC50 ratio greater than or equal to 10 fold)
